We go through 3 substances from patent US20020052331A1, “Compositions and methods for antisense inhibition of protein translation” (priority 1990, published 2002).

Type in all cases: cell-based, human
For data set [1], the system named is E-selectin mRNA. The data set is described as follows: Northern blot analysis of E-selectin mRNA levels in oligomer-treated HUVECs. An excerpt: ISIS 11929 is an antisense oligonucleotide targeted to E-selectin, another cellular adhesion molecule, and was included in this experiment as a control.
(§1) Total cellular RNA was isolated by cellular lysis using CATRIMOX-14 surfactant (Iowa Biotechnology Group, Oakdale Iowa). Isolated RNA was separated on a 1.2% agarose gel containing 1.1% formaldehyde, then transferred to a nylon membrane and UV crosslinked to the membrane using a Stratagene UV crosslinker 2400 (La Jolla Calif.). Blots were hybridized with cDNA probes in QUICKHYB solution (Stratagene). Blots were washed twice at room temperature in 2×SSC with 0.1% SDS for 10 minutes each and then once in […] SSC with 0.1% SDS at 65° C. for 30 minutes.

Data set [2] concerns E-selectin mRNA. The data set is described as follows: ELISA of E-selectin expression in HUVECs. To be noted: HUVECs; for IC50: ELISA, read-out: IC50 for reduction of E-selectin expression. On the technique in general: An ELISA detects its analyte on a solid surface through an enzyme-linked reagent.
Data set [3] deals with ICAM-1 mRNA. The data set is described as follows: Northern blot analysis of ICAM-1 transcript abundance in oligomer-treated HUVECs. Conditions: FIG. 2.
Source text: Total cellular RNA was isolated from oligomer-treated HUVECs and analyzed to determine if inhibition of ICAM-1 protein expression resulted from antisense-promoted degradation of the target transcript.
as §1

The subject of data set [4] is ICAM-1 mRNA. The data set is described as follows: Cell surface ICAM-1 expression in U937 cells after electroporation of MMI oligomers. Conditions: six concentrations 4 to 40 μM, N.A. = IC50 not obtained in the given dose range, read-out: Antisense activity (IC50) Electroporate. As to the method: ISIS 14293-14296 are corresponding oligomers with alternating MMI/P═S backbones.
U937 cells were washed once in cold Opti-MEM (Gibco-BRL, Grand Island, N.Y.) and resuspended at 4×10^6 cells/ml. Oligomer was added to 0.1 ml of cells and incubated for 10 minutes on ice. Cells were transferred to a 1 mm gap electrode (BTX, San Diego, Calif.) and electroporated at 0.75 kV/cm. Cells were incubated at room temperature for 10 minutes and transferred to pre-warmed medium. Cells were allowed to rest for 1.5 hours before ICAM-1 expression was induced with 5 ng/ml TNF-αovernight. Cells were stained with an anti-ICAM-1-PE antibody (Pharmingen, San Diego CA) the next day.

For data set [5], the system named is ICAM-1 mRNA. Briefly: Cell surface ICAM-1 expression in HUVECs after Lipofectin delivery of MMI oligomers. To be noted: six concentrations 6.2 to 200 nM, N.A. = IC50 not obtained in the given dose range, read-out: Antisense activity (IC50) Lipofectin.

Like-named read-outs stand apart in the source and are kept apart here. Strand notation (5' to 3'): a small letter for the sugar, then the base; units joined by * are phosphorothioate-linked, units joined directly phosphodiester-linked; [ ] holds rarer units or linkages, { } end groups; capitals alone tell only the bases. [MMI] = methylene(methylimino) internucleoside backbone linkage; e = 2'-O-(2-methoxyethyl) (MOE); [5mC] = 5-methylcytosine; d = 2'-deoxy (DNA)

The IC50 is the concentration that gives 50% inhibition. For “ISIS 11929: SEQ ID NO: 3, P═O all 2′-MOE except 3′ nt is deoxy, all C's 5meC; E-selectin 5′ cap (antisense eGeAeAeGeTe[5mC]eAeGe[5mC]e[5mC]eAeAeGeAeAe[5mC]eAeGe[5mC]dT)”, in data set [1], the “E-selectin mRNA levels” value is listed as “did cause an increase”. For the same substance, the IC50 in data set [2] (FIG. 5 experiment) and in data set [2] (equivalent (second) experiment) was less than 3 nM each time. Further, in data set [2] (FIG. 3 experiment), the “IC50 for inhibition of E-selectin expression” value is listed as “well below this”. In addition, in data set [2] (oligomer concentration of 50 nM), the “inhibition of E-selectin expression” value is given as roughly 100%. In addition, the “relative abundance of the ICAM-1 transcript (Northern blot)” value in data set [3] is “did not cause an increase”.

“ISIS 14293: T*CT*GA*GT*AG*CA*GA*GG*AG*CT*C (SEQ ID NO: 1), alternating P═S/MMI; ICAM-1 n.t. 1-20 (TCTGAGTAGCAGAGGAGCTC; linkages [MMI]s[MMI]s[MMI]s[MMI]s[MMI]s[MMI]s[MMI]s[MMI]s[MMI]s[MMI] (s phosphorothioate, o phosphodiester), sugars by position and methylation of C not given here; 3'-terminal nucleotide 2'-deoxy, non-terminal cytosines 5-methylated)”: the IC50 in data set [4] is 32000 nM; in data set [5], 115 nM.

In the case of “ISIS 14294: T*GA*GT*AG*CA*GA*GG*AG*CT*C (SEQ ID NO: 12), alternating P═S/MMI; ICAM-1 n.t. 1-18 (TGAGTAGCAGAGGAGCTC; linkages [MMI]s[MMI]s[MMI]s[MMI]s[MMI]s[MMI]s[MMI]s[MMI]s[MMI] (s phosphorothioate, o phosphodiester), sugars by position and methylation of C not given here; 3'-terminal nucleotide 2'-deoxy, non-terminal cytosines 5-methylated)”, the IC50 amounted to 20000 nM in data set [4] and 175 nM in data set [5].
